Columns and labels:
Assay type in all cases: cell-based
Details in all cases: 10.0% sucrose, 1.0% yeast extract, 1.6% xanthan gum, pH 5.0, anaerobic, 37° C.
[1] = system: vaginal secretion specimen of a patient suffering from typical bacterial vaginosis; experiment: Experimental Example 1: pH of culture samples (production of acids)
Description: (§1) • (1) The preparation of the composition: Sucrose was used to prepare the following composition according to the method mentioned above: sucrose 10.0% (W/V), yeast extract 1.0% (W/V), Xanthan gum 1.6% (W/V), pH 5.0; then filled the composition into the tubes after sterilization, with each tube containing 5 ml, and pre-reduced for use. • (2) Specimen suspension: Vaginal secretion was taken from one of the patients suffering from typical bacterial vaginosis with a cotton swab, then the swab was washed in 2 ml sterilized Trypcase-soy Broth immediately, and thus the specimen suspension was ready. […] The tubes were placed in an incubator for cultivation, at 37° C., anaerobically. Then, culture samples were taken from the tubes at 10 hours and 24 hours later respectively. The Gram smears of the samples were observed and the pH values of the samples were measured.

Gram-negative bacilli = experiment: Experimental Example 1: bacterial vaginosis specimen suspension cultured in the composition, Gram smear
Description: as §1

Gram-positive cocci = experiment: as above
Description: as §1

Gram-positive bacilli = experiment: as above
Description: as §1

Gram-negative cocci = experiment: as above
Description: as §1

Question: For OC[C@H]1O[C@@](CO)(O[C@H]2O[C@H](CO)[C@@H](O)[C@H](O)[C@H]2O)[C@@H](O)[C@@H]1O [Sucrose, sucrose], which “pH, 10 hours-culture” value ([1]; 10 hours) is on record?
Answer: Its value is 5.0.

Question: And the “pH, 24 hours-culture” value ([1]; 24 hours)?
Answer: Its value is 4.0.

Question: And the “Bacteria G − b (Gram-negative bacilli), 10 hours-culture” value (Gram-negative bacilli; 10 hours)?
Answer: Its value is “G − b, ++ (About 10-99 bacteria per field of vision under oil-immersion lens)”.

Question: And the “Bacteria G − b (Gram-negative bacilli), 24 hours-culture” value (Gram-negative bacilli; 24 hours)?
Answer: Its value is “G − b, ++ (About 10-99 bacteria per field of vision under oil-immersion lens)”.

Question: And the “Bacteria G + c (Gram-positive cocci), 24 hours-culture” value (Gram-positive cocci)?
Answer: Its value is “G + C, ++ (About 10-99 bacteria per field of vision under oil-immersion lens)”.

Question: And the “Bacteria G + b (Gram-positive bacilli), 10 hours-culture” value (Gram-positive bacilli; 10 hours)?
Answer: Its value is “G + b, +++ (About 100 bacteria or more per field vision under oil-immersion lens, even uncountable)”.

Question: What about the “Bacteria G + b (Gram-positive bacilli), 24 hours-culture” value (Gram-positive bacilli; 24 hours) of the same compound?
Answer: Its value is “G + b, ++++”.

Question: And the “Bacteria G − c (Gram-negative cocci), 24 hours-culture” value (Gram-negative cocci)?
Answer: Its value is “G − c, + (1-9 bacteria per field of vision under oil-immersion lens)”.
